Values quoted from earlier work as cited in patent US20070191933A1, “Reduction of restenosis” (priority 2005, published 2007).

Tested on: circulating T-cells
Details: FIG. 1

Question: What does the source list for alemtuzumab [Campath]?
Answer: time to full recovery of T-cells (after a single dose): ≥ 3 months; killing of circulating T-cells (single dose): kill all circulating T-cells
